For one test, the target named is T1, Acetylcholinesterase (Rattus norvegicus, UniProt P37136).
T1 sequence (P37136 whole entry): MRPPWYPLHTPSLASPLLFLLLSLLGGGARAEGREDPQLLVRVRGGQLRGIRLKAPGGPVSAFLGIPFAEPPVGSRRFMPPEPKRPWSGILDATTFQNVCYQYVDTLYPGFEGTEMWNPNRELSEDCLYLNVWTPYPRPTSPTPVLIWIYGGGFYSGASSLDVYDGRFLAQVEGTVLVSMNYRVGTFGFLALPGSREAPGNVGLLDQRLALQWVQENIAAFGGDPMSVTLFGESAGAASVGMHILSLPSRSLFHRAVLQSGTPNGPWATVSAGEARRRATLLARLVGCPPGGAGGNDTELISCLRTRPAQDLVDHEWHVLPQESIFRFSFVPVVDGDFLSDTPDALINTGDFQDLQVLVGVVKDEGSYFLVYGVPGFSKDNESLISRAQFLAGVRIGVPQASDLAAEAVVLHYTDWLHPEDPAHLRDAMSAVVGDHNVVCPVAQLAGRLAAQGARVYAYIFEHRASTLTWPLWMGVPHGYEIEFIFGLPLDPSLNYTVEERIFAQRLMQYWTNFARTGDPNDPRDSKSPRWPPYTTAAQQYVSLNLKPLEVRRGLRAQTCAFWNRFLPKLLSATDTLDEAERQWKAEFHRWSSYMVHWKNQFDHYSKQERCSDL
The experiment in a line: Inhibitory activity against rat brain total Acetylcholinesterase (AChE) was determined using Ellman's method. On the technique in general: In Ellman's method for cholinesterases, released thiocholine reacts with DTNB.

The target in the next test is Butyrylcholinesterase (Rattus norvegicus, UniProt Q9JKC1).
Sequence of Butyrylcholinesterase (Q9JKC1 whole entry): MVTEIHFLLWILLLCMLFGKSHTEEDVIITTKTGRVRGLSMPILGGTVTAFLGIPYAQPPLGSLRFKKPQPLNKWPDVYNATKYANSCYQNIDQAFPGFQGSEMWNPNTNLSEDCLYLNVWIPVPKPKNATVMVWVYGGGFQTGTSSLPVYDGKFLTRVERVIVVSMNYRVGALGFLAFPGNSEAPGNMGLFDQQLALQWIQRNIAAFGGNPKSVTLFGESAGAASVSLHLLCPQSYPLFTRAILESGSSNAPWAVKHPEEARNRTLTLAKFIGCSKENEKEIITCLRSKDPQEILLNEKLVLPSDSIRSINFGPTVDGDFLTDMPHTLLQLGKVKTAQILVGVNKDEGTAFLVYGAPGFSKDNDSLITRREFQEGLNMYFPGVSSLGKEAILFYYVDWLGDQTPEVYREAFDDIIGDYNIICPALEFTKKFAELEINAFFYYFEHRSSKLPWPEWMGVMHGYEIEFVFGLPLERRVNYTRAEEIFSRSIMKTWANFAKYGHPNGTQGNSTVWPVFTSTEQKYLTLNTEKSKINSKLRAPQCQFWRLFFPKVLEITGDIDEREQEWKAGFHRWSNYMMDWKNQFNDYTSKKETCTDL

Among the data in ChEMBL document CHEMBL1136738, “Design, synthesis, and pharmacological profile of novel fused pyrazolo[4,3-d]pyridine and pyrazolo[3,4-b][1,8]naphthyridine isosteres: a new class of potent and selective acetylcholinesterase inhibitors” (J Med Chem, 2003) are IC50 values, retold here.

Description for Butyrylcholinesterase: Inhibitory concentration against rat brain butyrylcholinesterase (BuChE) was determined using Ellman's method

In general, IC50 refers to the midpoint of a concentration-inhibition curve. A high value points to a need for much substance. On Acetylcholinesterase, `Cc1nn(-c2ccccc2)c2c(N)c3c(nc12)CCC3` yielded an IC50 of 32.2 µM.

On Acetylcholinesterase, `Cc1nn(-c2ccccc2)c2nc3c(c(N)c12)CCCC3` showed an IC50 of 28.5 µM. On the same count and under the same terms, as for `COc1ccc2c3c1C[C@H]1C[C@@H](O)C=C[C@]31CCN(C)C2`, the figure is 3.1 µM. As to `Cc1nn(-c2ccccc2)c2nc3nc4c(c(N)c3cc12)CCCC4`, the IC50 was determined as 6.39 µM against Acetylcholinesterase and 134 µM against Butyrylcholinesterase.

In turn, `Cc1nn(-c2ccccc2)c2c(N)c3c(nc12)CCCC3` yielded an IC50 at Acetylcholinesterase of 26.7 µM. For the compound `Nc1c2c(nc3nn(-c4ccccc4)cc13)CCCC2`, the figures for the IC50 against Acetylcholinesterase and on Butyrylcholinesterase were 6.01 µM and 31.9 µM, respectively. On Acetylcholinesterase, `Cc1nn(-c2ccccc2)c2nc3c(c(N)c12)CCC3` came in with an IC50 of 31.2 µM. `Cc1nn(-c2ccccc2)c2nc3nc4c(c(N)c3cc12)CCC4` gave an IC50 on Acetylcholinesterase of 23.2 µM.
